From US20150113683A1, “METHODS FOR PLANT TRANSFORMATION USING SPECTINOMYCIN SELECTION” (Monsanto Technology LLC, priority 2007, published 2015)
“And” between values parts separate entries of the source, which are not always exact repeats. Identical values can stand only once.

Experiments:
soybean explants [1] = assay: BAP during co-culture and post co-culture delay: rooted plants and TF, spectinomycin selection; assay type: cell-based, soybean (Glycine max); conditions: 150 mg/L spectinomycin selection
Procedure: Soybean explants were inoculated and co-cultured with Agrobacterium harboring pMON96999 (FIG. 2). The inoculation and co-culture medium were supplemented with 0, 1, 2, 3, 4 or 5 mg/L BAP. […] The explants were then transferred onto selection medium (the same as the delay medium but containing 150 mg/L spectinomycin) for shoot induction and selection. […] To determine how many explants could develop transformed shoots without BAP treatment, explant tissues were assayed for GUS activity at 42 days after inoculation. […] Most of them were axillary, and some of them were apparently chimeric. The explants treated with BAP had much less or non-elongated primary shoots, and more de novo shoots. Many of the shoots elongated on the selection medium and were harvested to induce roots on the root induction medium also containing 150 mg/L spectinomycin as in protocol “A”.

soybean explants [2] = assay: BAP or TDZ for 4 days after co-cultivation: GFP-positive bud development, dicamba selection; assay type: cell-based, soybean (Glycine max); conditions: for # Explants w/ GFP+ buds / % Explants w/ GFP+ buds: 0.01 mg/L dicamba selection, 24 DAI; for effect on final transformation frequencies (TFs): addition of cytokinin with dicamba selection
soybean explants [3] = assay: TDZ in inoculation/co-culture medium: shoots harvested and transformed rooted shoots, glyphosate selection; assay type: cell-based, soybean (Glycine max)
dry soybean explants = assay: Transformation frequency of dry soybean explants using glyphosate or spectinomycin as selective agent; assay type: cell-based; conditions: Glyphosate 50 uM in regeneration medium; dry soybean explants
soybean explants [4] = assay: TDZ during inoculation and co-culture: development of GUS-positive buds; assay type: cell-based, soybean (Glycine max); conditions: for # Explants w/ GUS+ buds (13 DAI): 96 explants assayed
soybean explants [5] = assay: TDZ during inoculation/co-cultivation: GFP-positive bud/shoot development, glyphosate selection; assay type: cell-based, soybean (Glycine max); conditions: for # Explants with GFP+ buds/shoots: 200 explants examined
[6] = tested on: 3 months stored dry soybean explants; assay: Stored dry soybean explants, spectinomycin, pre-culture: TF; assay type: cell-based; conditions: nystatin 50 ppm and thiabendazole 10 ppm dissolved in DMSO added together to INO co-culture media
[7] = BAP 1 mg/L in co-culture & 4-d post co-culture delay medium
[8] = BAP 2 mg/L in co-culture & 4-d post co-culture delay medium
[9] = BAP 3 mg/L in co-culture & 4-d post co-culture delay medium
[10] = BAP 4 mg/L in co-culture & 4-d post co-culture delay medium
[11] = BAP 5 mg/L in co-culture & 4-d post co-culture delay medium
[12] = 1 mg/L for 4 days after co-cultivation
[13] = 2 mg/L for 4 days after co-cultivation
[14] = TDZ 0.5 mg/L for inoculation & co-culture
[15] = TDZ 1.0 mg/L for inoculation & co-culture
[16] = TDZ 2.0 mg/L for inoculation & co-culture
[17] = TDZ 0.5 mg/L in inoculation and co-cultivation medium
[18] = TDZ 1.0 mg/L in inoculation and co-cultivation medium
[19] = TDZ 1.5 mg/L in inoculation and co-cultivation medium
[20] = TDZ 2.0 mg/L in inoculation and co-cultivation medium
[21] = TDZ 3.0 mg/L in inoculation and co-cultivation medium
[22] = TDZ 1 mg/L for inoculation/co-culture, glyphosate selection
[23] = TDZ 2 mg/L for inoculation/co-culture, glyphosate selection
[24] = TDZ 3 mg/L for inoculation/co-culture, glyphosate selection

SMILES: c1ccc(CNc2ncnc3nc[nH]c23)cc1 [BAP, 6-Benzylaminopurine]
- # Rooted plants (soybean explants [1]; [7]): 103
- % TF (soybean explants [1]; [7]): 26.1%
- # Rooted plants (soybean explants [1]; [8]): 94
- % TF (soybean explants [1]; [8]): 27.1%
- # Rooted plants (soybean explants [1]; [9]): 87
- % TF (soybean explants [1]; [9]): 24.9%
- # Rooted plants (soybean explants [1]; [10]): 132
- % TF (soybean explants [1]; [10]): 30.3%
- # Rooted plants (soybean explants [1]; [11]): 116
- % TF (soybean explants [1]; [11]): 26.6%
- # Explants w/ GFP+ buds (soybean explants [2]; [12]): 12
- % Explants w/ GFP+ buds (soybean explants [2]; [12]): 3.7%
- # Explants w/ GFP+ buds (soybean explants [2]; [13]): 11
- % Explants w/ GFP+ buds (soybean explants [2]; [13]): 3.3%
- effect on final transformation frequencies (TFs) (soybean explants [2]): no visible effect

SMILES: O=C(O)CNCP(=O)(O)O [Glyphosate, glyphosate]
- transformation frequency (soybean explants [3]; comparable experiments utilizing glyphosate as selective agent): ~2%
- % TF (dry soybean explants): 2.00%

SMILES: O=C(Nc1ccccc1)Nc1cnns1 [TDZ, thidiazuron]
- % Explants with GUS+ buds (13 DAI) (soybean explants [4]; [14]): 18.8%
- # Explants w/ GUS+ buds (13 DAI) (soybean explants [4]; [14]): 18
- % Explants with GUS+ buds (13 DAI) (soybean explants [4]; [15]): 35.4%
- # Explants w/ GUS+ buds (13 DAI) (soybean explants [4]; [15]): 34
- % Explants with GUS+ buds (13 DAI) (soybean explants [4]; [16]): 50.0%
- # Explants w/ GUS+ buds (13 DAI) (soybean explants [4]; [16]): 48
- Frequency of explants with GFP+ buds/shoots (soybean explants [5]; [17]): 18%
- # Explants with GFP+ buds/shoots (soybean explants [5]; [17]): 36
- Frequency of explants with GFP+ buds/shoots (soybean explants [5]; [18]): 24%
- # Explants with GFP+ buds/shoots (soybean explants [5]; [18]): 48
- Frequency of explants with GFP+ buds/shoots (soybean explants [5]; [19]): 25%
- # Explants with GFP+ buds/shoots (soybean explants [5]; [19]): 50
- Frequency of explants with GFP+ buds/shoots (soybean explants [5]; [20]): 30%
- # Explants with GFP+ buds/shoots (soybean explants [5]; [20]): 60
- Frequency of explants with GFP+ buds/shoots (soybean explants [5]; [21]): 32%
- # Explants with GFP+ buds/shoots (soybean explants [5]; [21]): 64
- # Explants w/ GFP+ buds (soybean explants [2]; [12]): 71
- % Explants w/ GFP+ buds (soybean explants [2]; [12]): 18.3%
- # Explants w/ GFP+ buds (soybean explants [2]; [13]): 53
- % Explants w/ GFP+ buds (soybean explants [2]; [13]): 13.8%
- effect on final transformation frequencies (TFs) (soybean explants [2]): no visible effect
- % Transformed rooted shoots (soybean explants [3]; TDZ 0.5 mg/L for inoculation/co-culture, glyphosate selection): 1.1% and 1.4% and 4.3%
- % Transformed rooted shoots (soybean explants [3]; [22]): 1.3% and 1.6% and 0.5% and 3.2% and 1%
- Shoots harvested, % Shooting Frequency (soybean explants [3]; [22]): 4.9% and 7% and 3.5% and 13% and 6.8%
- % Transformed rooted shoots (soybean explants [3]; [23]): 0.1% and 1.3% and 0.9% and 0.5%
- Shoots harvested, % Shooting Frequency (soybean explants [3]; [23]): 1.4% and 4.9% and 5.1% and 6.7% and 1.9%
- % Transformed rooted shoots (soybean explants [3]; [24]): 0.6% and 0.7%
- Rooted shoots, Total # (soybean explants [3]; [24]): 5 and 8
- Shoots harvested, % Shooting Frequency (soybean explants [3]; [24]): 4.7% and 1.9%
- Shoots harvested, Total # (soybean explants [3]; [24]): 40 and 20

SMILES: C[C@@H]1[C@H](O)[C@@H](C)/C=C/C=C/CC/C=C/C=C/C=C/C=C/C(O[C@H]2O[C@H](C)[C@@H](O)[C@H](N)[C@@H]2O)CC2O[C@](O)(CC(O)C(O)CCC(O)CC(O)CC(O)CC(=O)O[C@H]1C)CC(O)C2C(=O)O (stereo partly shown) [nystatin]
- health of explants [6]: improved the health of explants

SMILES: c1ccc2[nH]c(-c3cscn3)nc2c1 [thiabendazole]
- health of explants [6]: improved the health of explants
